#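 Compound exposure: 48 hours, 5 concentrations, 96-well plates. TGI denotes the concentration required for complete inhibition of growth.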
# Experiments:
# Assay in all cases: inhibition of tumour cell growth, NCI panel, 48 h
# 786-0 renal = tested on: 786-0 renal
# A549 NSCLC = tested on: A549 NSCLC
# ACHN renal = tested on: ACHN renal
# BT-549 breast = tested on: BT-549 breast
# CCRF-CEM leukemia = tested on: CCRF-CEM leukemia
# COLO 205 colon = tested on: COLO 205 colon
# DU-145 prostate = tested on: DU-145 prostate
# EKVX NSCLC = tested on: EKVX NSCLC
# HCC-2998 colon = tested on: HCC-2998 colon
# HCT-116 colon = tested on: HCT-116 colon
# HCT-15 colon = tested on: HCT-15 colon
# HL-60(TB) leukemia = tested on: HL-60(TB) leukemia
# HOP-62 NSCLC = tested on: HOP-62 NSCLC
# HOP-92 NSCLC = tested on: HOP-92 NSCLC
# HS 578T breast = tested on: HS 578T breast
# HT29 colon = tested on: HT29 colon
# IGROV1 ovarian = tested on: IGROV1 ovarian
# K-562 leukemia = tested on: K-562 leukemia
# KM12 colon = tested on: KM12 colon
# LOX IMVI melanoma = tested on: LOX IMVI melanoma
# M14 melanoma = tested on: M14 melanoma
# MALME-3M melanoma = tested on: MALME-3M melanoma
# MCF7 breast = tested on: MCF7 breast
# MDA-MB-231 breast = tested on: MDA-MB-231 breast
# MDA-MB-435 = tested on: MDA-MB-435
# MDA-N = tested on: MDA-N
# MOLT-4 leukemia = tested on: MOLT-4 leukemia
# NCI-H226 lung = tested on: NCI-H226 lung
# NCI-H23 lung = tested on: NCI-H23 lung
# NCI-H460 lung = tested on: NCI-H460 lung
# NCI-H522 lung = tested on: NCI-H522 lung
# NCI/ADR-RES ovarian = tested on: NCI/ADR-RES ovarian
# OVCAR-3 ovarian = tested on: OVCAR-3 ovarian
# OVCAR-4 ovarian = tested on: OVCAR-4 ovarian
# OVCAR-5 ovarian = tested on: OVCAR-5 ovarian
# OVCAR-8 ovarian = tested on: OVCAR-8 ovarian
# PC-3 prostate = tested on: PC-3 prostate
# RPMI-8226 leukemia = tested on: RPMI-8226 leukemia
# RXF 393 renal = tested on: RXF 393 renal
# SF-268 CNS = tested on: SF-268 CNS
# SF-295 CNS = tested on: SF-295 CNS
# SF-539 CNS = tested on: SF-539 CNS
# SK-MEL-2 melanoma = tested on: SK-MEL-2 melanoma
# SK-MEL-28 melanoma = tested on: SK-MEL-28 melanoma
# SK-MEL-5 melanoma = tested on: SK-MEL-5 melanoma
# SK-OV-3 ovarian = tested on: SK-OV-3 ovarian
# SN12C renal = tested on: SN12C renal
# SNB-19 CNS = tested on: SNB-19 CNS
# SNB-75 CNS = tested on: SNB-75 CNS
# SR leukemia = tested on: SR leukemia
# SW-620 colon = tested on: SW-620 colon
# T-47D breast = tested on: T-47D breast
# TK-10 renal = tested on: TK-10 renal
# U251 CNS = tested on: U251 CNS
# UACC-257 melanoma = tested on: UACC-257 melanoma
# UACC-62 melanoma = tested on: UACC-62 melanoma
# UO-31 renal = tested on: UO-31 renal
# A498 renal = tested on: A498 renal
structure (smiles),measurement,setting,value
Cc1c2ccnc(C(=O)NCCN(C)C)c2cc2c3cc(O)ccc3n(C)c12,TGI,786-0 renal,3.37 µM
same,TGI,A549 NSCLC,7.26 µM
same,TGI,ACHN renal,0.397 µM
same,TGI,BT-549 breast,10.7 µM
same,TGI,CCRF-CEM leukemia,0.24 µM
same,TGI,COLO 205 colon,4.01 µM
same,TGI,DU-145 prostate,0.771 µM
same,TGI,EKVX NSCLC,5.18 µM
same,TGI,HCC-2998 colon,2.11 µM
same,TGI,HCT-116 colon,6.1 µM
same,TGI,HCT-15 colon,4.39 µM
same,TGI,HL-60(TB) leukemia,0.532 µM
same,TGI,HOP-62 NSCLC,2.16 µM
same,TGI,HOP-92 NSCLC,3.59 µM
same,TGI,HS 578T breast,4.03 µM
same,TGI,HT29 colon,3.87 µM
same,TGI,IGROV1 ovarian,6.72 µM
same,TGI,K-562 leukemia,2.4 µM
same,TGI,KM12 colon,5.41 µM
same,TGI,LOX IMVI melanoma,1.26 µM
same,TGI,M14 melanoma,1.47 µM
same,TGI,MALME-3M melanoma,2.06 µM
same,TGI,MCF7 breast,5.75 µM
same,TGI,MDA-MB-231 breast,3.35 µM
same,TGI,MDA-MB-435,1.54 µM
same,TGI,MDA-N,1.93 µM
same,TGI,MOLT-4 leukemia,0.0147 µM
same,TGI,NCI-H226 lung,2.26 µM
same,TGI,NCI-H23 lung,1.7 µM
same,TGI,NCI-H460 lung,1.39 µM
same,TGI,NCI-H522 lung,1.02 µM
same,TGI,NCI/ADR-RES ovarian,6.64 µM
same,TGI,OVCAR-3 ovarian,2.77 µM
same,TGI,OVCAR-4 ovarian,2.22 µM
same,TGI,OVCAR-5 ovarian,6.29 µM
same,TGI,OVCAR-8 ovarian,4.06 µM
same,TGI,PC-3 prostate,2 µM
same,TGI,RPMI-8226 leukemia,1.14 µM
same,TGI,RXF 393 renal,2.31 µM
same,TGI,SF-268 CNS,2.28 µM
same,TGI,SF-295 CNS,3.37 µM
same,TGI,SF-539 CNS,1.3 µM
same,TGI,SK-MEL-2 melanoma,1.7 µM
same,TGI,SK-MEL-28 melanoma,2.14 µM
same,TGI,SK-MEL-5 melanoma,1.45 µM
same,TGI,SK-OV-3 ovarian,1.65 µM
same,TGI,SN12C renal,2.15 µM
same,TGI,SNB-19 CNS,5.16 µM
same,TGI,SNB-75 CNS,2.19 µM
same,TGI,SR leukemia,< 0.0564 µM
same,TGI,SW-620 colon,4.36 µM
same,TGI,T-47D breast,2.83 µM
same,TGI,TK-10 renal,9.05 µM
same,TGI,U251 CNS,2.43 µM
same,TGI,UACC-257 melanoma,4.74 µM
same,TGI,UACC-62 melanoma,1.01 µM
same,TGI,UO-31 renal,4.11 µM
C1=NCCN2CCN(CCN=Cc3ccccc3OCc3cccc(n3)COc3ccccc31)CC2,TGI,786-0 renal,39.5 µM
same,TGI,A498 renal,> 50 µM
same,TGI,A549 NSCLC,> 50 µM
same,TGI,ACHN renal,25.6 µM
same,TGI,BT-549 breast,25.9 µM
same,TGI,CCRF-CEM leukemia,> 50 µM
same,TGI,COLO 205 colon,> 50 µM
same,TGI,DU-145 prostate,35.7 µM
same,TGI,EKVX NSCLC,> 50 µM
same,TGI,HCT-116 colon,18.8 µM
same,TGI,HCT-15 colon,21.4 µM
same,TGI,HL-60(TB) leukemia,22.6 µM
same,TGI,HOP-62 NSCLC,> 50 µM
same,TGI,HOP-92 NSCLC,41.6 µM
same,TGI,HS 578T breast,4.43 µM
same,TGI,HT29 colon,18.5 µM
same,TGI,IGROV1 ovarian,37.2 µM
same,TGI,K-562 leukemia,> 50 µM
same,TGI,KM12 colon,26.2 µM
same,TGI,M14 melanoma,> 50 µM
same,TGI,MALME-3M melanoma,32.4 µM
same,TGI,MCF7 breast,9.29 µM
same,TGI,MDA-MB-231 breast,34 µM
same,TGI,MDA-MB-435,2.22 µM
same,TGI,MDA-N,2.72 µM
same,TGI,MOLT-4 leukemia,34.3 µM
same,TGI,NCI-H23 lung,> 50 µM
same,TGI,NCI-H460 lung,> 50 µM
same,TGI,NCI-H522 lung,> 50 µM
same,TGI,NCI/ADR-RES ovarian,17.2 µM
same,TGI,OVCAR-3 ovarian,4.66 µM
same,TGI,OVCAR-4 ovarian,26.6 µM
same,TGI,OVCAR-5 ovarian,28.3 µM
same,TGI,OVCAR-8 ovarian,35.5 µM
same,TGI,PC-3 prostate,> 50 µM
same,TGI,RPMI-8226 leukemia,19.1 µM
same,TGI,RXF 393 renal,4.68 µM
same,TGI,SF-268 CNS,21.1 µM
same,TGI,SF-295 CNS,14.1 µM
same,TGI,SF-539 CNS,14.1 µM
same,TGI,SK-MEL-2 melanoma,> 50 µM
same,TGI,SK-MEL-28 melanoma,> 50 µM
same,TGI,SK-OV-3 ovarian,> 50 µM
same,TGI,SN12C renal,26.3 µM
same,TGI,SNB-19 CNS,> 50 µM
same,TGI,SNB-75 CNS,32.5 µM
same,TGI,SR leukemia,15.4 µM
same,TGI,SW-620 colon,> 50 µM
same,TGI,TK-10 renal,24.9 µM
same,TGI,U251 CNS,10.2 µM
same,TGI,UACC-257 melanoma,34.4 µM
same,TGI,UACC-62 melanoma,7.8 µM
same,TGI,UO-31 renal,> 50 µM
